Consider eleven compounds from ChEMBL document CHEMBL1201862, “PubChem BioAssay data set” (2004).

Active and inactive are the calls of the source.

As usually defined, the IC50 is the concentration needed to halve the response being measured. One may read the AC50 as the concentration giving half of the maximal activity seen. The term EC50 denotes the concentration that produces a half-maximal response.

Assay [1] has as its target Induced myeloid leukemia cell differentiation protein Mcl-1 (Homo sapiens, UniProt Q07820). The assay is classed as functional.
A short description of assay [2]: cytotoxicity in HEK-293T cells, dose response, cytotoxicity control for TCR NF-kB inhibitor project, luminescence, T-cell screen hits (AID 489026).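 Note: cells exposed to compound about 14 hours before the viability readout.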 The assay is classed as functional, cell-based.
The target of the next assay is Nonstructural protein 1 (Influenza A virus, UniProt Q194T2). The assay is classed as functional, Influenza A virus (A/California/07/2009(H1N1)).
Nonstructural protein 1, sequence (Q194T2 whole entry, the tested form may be a part): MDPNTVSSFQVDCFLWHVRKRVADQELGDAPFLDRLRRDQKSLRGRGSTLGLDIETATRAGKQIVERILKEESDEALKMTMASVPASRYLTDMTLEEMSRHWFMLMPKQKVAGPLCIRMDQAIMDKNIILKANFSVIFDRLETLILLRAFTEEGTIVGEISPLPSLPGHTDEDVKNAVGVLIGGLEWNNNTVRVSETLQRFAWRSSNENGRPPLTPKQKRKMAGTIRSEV
For assay [3], the target named is T1, Carboxy-terminal domain RNA polymerase II polypeptide A small phosphatase 1 (Homo sapiens, UniProt Q9GZU7).
T1 sequence (Q9GZU7 whole entry): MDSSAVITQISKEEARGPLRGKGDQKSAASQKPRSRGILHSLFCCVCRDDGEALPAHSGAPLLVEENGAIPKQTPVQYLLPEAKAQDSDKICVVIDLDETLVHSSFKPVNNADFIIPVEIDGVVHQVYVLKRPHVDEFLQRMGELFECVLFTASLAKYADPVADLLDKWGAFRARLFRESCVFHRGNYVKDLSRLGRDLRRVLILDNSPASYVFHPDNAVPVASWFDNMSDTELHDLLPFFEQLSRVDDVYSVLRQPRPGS
The assay can be described thus: inhibitors of CTDSP1, concentration-response testing, biochemical assay, absorbance-based, actives from ultra-high-throughput screening (AID 540297). The assay is classed as functional.

In assay [4] the target is T2, Sentrin-specific protease 8 (Homo sapiens, UniProt Q96LD8).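 Note: luminescence read-out of SENP8 inhibition, dose-response confirmation following an ultra-high-throughput screen.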
T2 sequence (Q96LD8 whole entry): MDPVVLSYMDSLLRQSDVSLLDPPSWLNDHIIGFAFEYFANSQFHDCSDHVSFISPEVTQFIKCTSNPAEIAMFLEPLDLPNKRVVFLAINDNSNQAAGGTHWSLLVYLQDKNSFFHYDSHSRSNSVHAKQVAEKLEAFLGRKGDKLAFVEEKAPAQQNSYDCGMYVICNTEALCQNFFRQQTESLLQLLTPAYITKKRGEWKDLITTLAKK
The assay is classed as functional.

Another assay concerns the target T3, Caspase-3 (Homo sapiens, UniProt P42574).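 Note: Dose-response selectivity test against caspase-3 for candidate inhibitors of sentrin-specific proteases (SENPs).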
T3 sequence (P42574 whole entry): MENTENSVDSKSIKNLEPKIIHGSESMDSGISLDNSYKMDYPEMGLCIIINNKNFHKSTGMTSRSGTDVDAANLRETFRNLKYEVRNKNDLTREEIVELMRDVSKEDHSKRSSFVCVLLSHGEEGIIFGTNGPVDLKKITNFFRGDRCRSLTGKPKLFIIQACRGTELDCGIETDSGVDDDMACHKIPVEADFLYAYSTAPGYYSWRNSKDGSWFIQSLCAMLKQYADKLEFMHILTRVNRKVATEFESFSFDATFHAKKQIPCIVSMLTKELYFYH
The assay is classed as functional.

Assay [5] deals with T4, Sentrin-specific protease 7 (Homo sapiens, UniProt Q9BQF6).
T4 sequence (Q9BQF6 whole entry): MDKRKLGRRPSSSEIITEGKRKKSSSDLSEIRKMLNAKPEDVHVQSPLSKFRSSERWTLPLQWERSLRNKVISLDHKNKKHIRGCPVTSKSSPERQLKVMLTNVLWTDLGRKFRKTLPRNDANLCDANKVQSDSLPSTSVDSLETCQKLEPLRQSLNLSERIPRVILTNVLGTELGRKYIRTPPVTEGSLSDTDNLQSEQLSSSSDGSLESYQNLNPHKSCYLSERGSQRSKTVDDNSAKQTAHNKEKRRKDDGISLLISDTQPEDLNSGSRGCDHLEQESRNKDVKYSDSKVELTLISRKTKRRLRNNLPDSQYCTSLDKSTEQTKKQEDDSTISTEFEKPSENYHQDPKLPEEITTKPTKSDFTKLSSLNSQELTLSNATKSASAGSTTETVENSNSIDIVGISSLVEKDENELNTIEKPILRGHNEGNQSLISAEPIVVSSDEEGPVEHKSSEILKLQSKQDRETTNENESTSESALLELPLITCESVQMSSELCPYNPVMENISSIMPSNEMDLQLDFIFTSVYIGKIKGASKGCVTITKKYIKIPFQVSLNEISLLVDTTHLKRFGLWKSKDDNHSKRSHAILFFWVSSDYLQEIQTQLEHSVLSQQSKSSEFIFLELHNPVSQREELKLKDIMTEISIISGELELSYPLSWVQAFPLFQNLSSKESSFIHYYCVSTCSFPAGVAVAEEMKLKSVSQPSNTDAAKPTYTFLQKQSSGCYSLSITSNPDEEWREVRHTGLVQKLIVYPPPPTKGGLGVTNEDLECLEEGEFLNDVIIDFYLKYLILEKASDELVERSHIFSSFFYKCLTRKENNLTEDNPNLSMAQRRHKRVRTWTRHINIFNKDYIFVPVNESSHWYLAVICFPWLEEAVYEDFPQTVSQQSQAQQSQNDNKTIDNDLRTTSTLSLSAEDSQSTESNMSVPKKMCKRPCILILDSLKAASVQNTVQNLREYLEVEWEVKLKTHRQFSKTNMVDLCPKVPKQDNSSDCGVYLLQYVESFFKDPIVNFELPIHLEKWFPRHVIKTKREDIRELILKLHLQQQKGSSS
The assay is classed as functional.

The target in assay [6] is T5, Sentrin-specific protease 6 (Homo sapiens, UniProt Q9GZR1).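 Note: Luminescence-based dose-response confirmatory assay of SENP6 inhibition, following up an ultra-high-throughput screen.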
T5 sequence (Q9GZR1 whole entry): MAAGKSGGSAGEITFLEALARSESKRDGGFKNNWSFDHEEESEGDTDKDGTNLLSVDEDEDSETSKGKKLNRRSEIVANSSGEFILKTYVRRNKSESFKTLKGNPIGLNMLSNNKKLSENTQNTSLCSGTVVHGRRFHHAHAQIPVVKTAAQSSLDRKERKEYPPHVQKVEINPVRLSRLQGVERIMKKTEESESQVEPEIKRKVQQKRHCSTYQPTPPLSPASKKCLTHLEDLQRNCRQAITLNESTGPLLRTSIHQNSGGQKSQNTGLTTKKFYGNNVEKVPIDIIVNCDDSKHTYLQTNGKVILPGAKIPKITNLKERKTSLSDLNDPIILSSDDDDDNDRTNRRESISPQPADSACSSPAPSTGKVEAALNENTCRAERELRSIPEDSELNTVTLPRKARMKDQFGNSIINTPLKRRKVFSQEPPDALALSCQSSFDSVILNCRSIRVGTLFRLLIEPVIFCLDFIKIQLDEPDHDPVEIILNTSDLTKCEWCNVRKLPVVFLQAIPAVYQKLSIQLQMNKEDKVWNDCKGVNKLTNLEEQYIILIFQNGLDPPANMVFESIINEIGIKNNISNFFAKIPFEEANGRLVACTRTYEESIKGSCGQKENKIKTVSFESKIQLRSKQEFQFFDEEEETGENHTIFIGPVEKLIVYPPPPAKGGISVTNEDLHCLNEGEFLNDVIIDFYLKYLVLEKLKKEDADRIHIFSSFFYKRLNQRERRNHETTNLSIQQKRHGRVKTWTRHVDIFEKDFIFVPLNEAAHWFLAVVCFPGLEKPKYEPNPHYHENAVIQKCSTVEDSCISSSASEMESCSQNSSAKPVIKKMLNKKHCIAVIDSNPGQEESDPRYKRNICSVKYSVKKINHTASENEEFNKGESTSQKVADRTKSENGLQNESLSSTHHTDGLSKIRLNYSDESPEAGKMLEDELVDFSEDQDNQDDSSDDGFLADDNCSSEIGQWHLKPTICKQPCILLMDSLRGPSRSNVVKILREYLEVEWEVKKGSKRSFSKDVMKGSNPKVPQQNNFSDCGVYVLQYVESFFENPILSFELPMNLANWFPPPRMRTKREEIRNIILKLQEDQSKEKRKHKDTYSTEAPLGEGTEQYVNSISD
The class given is functional.

Assay [7] is described as follows: P. falciparum Dd2 growth inhibitors, dose response, SYBR Green, dry powder samples (AID 1159566).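 Note: potency for growth inhibition with lower SYBR green DNA signal.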 The class given is functional, cell-based.
Assay [8] is described as follows: P. falciparum ATP4 D1247Y mutant growth inhibitors, dose response, NITD609-resistant line, SYBR Green, dry powder (AID 1159571).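 Note: parasites synchronized at ring stage by sorbitol before testing.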 The class given is functional, cell-based.
Assay [9] is described as follows: P. falciparum 3D7-ScDHODH growth inhibitors, dose response, SYBR Green, dry powder samples (AID 1159570).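 Note: parasite growth measured after 72 hours of compound exposure.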 The assay is classed as functional, cell-based.
The nature of assay [10]: P. falciparum Dd2 growth inhibitors, dose response, SYBR Green, cherry-picked samples (AID 1159567). The assay is classed as functional, cell-based.
Assay [11] has as its target T6, Heat shock factor protein 1 (Mus musculus, UniProt P38532).
T6 sequence (P38532 whole entry): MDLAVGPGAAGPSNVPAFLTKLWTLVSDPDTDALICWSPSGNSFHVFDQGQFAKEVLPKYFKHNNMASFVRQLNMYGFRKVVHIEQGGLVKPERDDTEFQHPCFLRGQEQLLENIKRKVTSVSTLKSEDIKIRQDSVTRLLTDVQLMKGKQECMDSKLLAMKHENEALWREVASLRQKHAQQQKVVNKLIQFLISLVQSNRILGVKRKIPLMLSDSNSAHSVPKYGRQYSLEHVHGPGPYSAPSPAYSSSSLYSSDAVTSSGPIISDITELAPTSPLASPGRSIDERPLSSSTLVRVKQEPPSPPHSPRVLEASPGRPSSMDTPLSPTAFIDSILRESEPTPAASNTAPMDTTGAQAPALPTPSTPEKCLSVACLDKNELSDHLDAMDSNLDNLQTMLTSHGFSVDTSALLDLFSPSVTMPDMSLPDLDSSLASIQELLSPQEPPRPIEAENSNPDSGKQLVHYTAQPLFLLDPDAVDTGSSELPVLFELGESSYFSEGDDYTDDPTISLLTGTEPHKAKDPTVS
The assay can be described thus: HSF1 potentiators in luciferase reporter cells, confirmation, cell-based, NIH3T3, luminescence, dose retest (AID 435004).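 Note: stress induced by proteasome inhibitor MG132 added 30 min after compound; luciferase reporter driven by HSF1 response element in NIH3T3 cells; actives raise luminescence as potentiators of the MG132 stress response.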 The class given is functional. A general note: A reporter such as luciferase makes a cellular process visible.

The target in the next assay is Large T antigen (Simian virus 40, UniProt P03070). The assay is classed as functional, Betapolyomavirus macacae.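 Note: Confirmatory-stage PubChem screen for compounds that inhibit SV40 T antigen.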
Large T antigen, sequence (P03070 whole entry): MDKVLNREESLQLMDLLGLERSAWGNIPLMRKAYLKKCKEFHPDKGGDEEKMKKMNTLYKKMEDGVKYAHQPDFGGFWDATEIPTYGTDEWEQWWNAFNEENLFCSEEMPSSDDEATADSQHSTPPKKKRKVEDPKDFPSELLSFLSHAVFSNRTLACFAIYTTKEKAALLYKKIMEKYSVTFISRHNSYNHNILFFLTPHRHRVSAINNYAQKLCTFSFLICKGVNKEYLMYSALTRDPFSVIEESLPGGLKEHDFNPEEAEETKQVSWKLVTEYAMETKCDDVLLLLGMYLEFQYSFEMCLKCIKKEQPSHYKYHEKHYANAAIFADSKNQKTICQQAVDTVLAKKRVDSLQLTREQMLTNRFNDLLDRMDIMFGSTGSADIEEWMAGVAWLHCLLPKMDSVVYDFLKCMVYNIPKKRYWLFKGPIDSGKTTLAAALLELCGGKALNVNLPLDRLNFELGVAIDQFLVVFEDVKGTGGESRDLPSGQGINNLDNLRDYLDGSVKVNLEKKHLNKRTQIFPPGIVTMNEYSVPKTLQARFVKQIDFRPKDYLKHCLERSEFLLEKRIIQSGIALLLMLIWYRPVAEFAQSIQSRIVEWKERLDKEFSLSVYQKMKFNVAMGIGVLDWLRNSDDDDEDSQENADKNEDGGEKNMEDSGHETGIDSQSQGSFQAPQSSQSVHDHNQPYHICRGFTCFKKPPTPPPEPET
In assay [12] the target is Glucose-6-phosphate 1-dehydrogenase (Homo sapiens, UniProt P11413). Kind of assay: human G6PD enzyme inhibitors, dose response, selectivity assay for P. falciparum G6PD inhibitor project, biochemical, fluorescence (AID 504792). The class given is functional.
Glucose-6-phosphate 1-dehydrogenase, sequence (P11413 whole entry): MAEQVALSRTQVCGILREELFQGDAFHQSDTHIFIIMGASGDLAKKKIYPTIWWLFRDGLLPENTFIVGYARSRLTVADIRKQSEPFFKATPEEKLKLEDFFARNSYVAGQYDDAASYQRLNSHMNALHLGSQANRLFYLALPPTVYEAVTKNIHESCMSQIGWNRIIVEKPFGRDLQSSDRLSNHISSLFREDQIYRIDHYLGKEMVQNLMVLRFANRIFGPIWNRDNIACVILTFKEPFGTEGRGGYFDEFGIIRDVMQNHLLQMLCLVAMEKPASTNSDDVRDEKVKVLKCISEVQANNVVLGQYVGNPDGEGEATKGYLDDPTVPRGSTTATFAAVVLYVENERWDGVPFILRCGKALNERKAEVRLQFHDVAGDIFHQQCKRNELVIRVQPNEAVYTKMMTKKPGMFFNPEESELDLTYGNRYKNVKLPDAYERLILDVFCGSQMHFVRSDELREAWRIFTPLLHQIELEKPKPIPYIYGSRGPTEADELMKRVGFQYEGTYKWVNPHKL
The test system of another assay is INS1. Kind of assay: beta cell apoptosis inhibitors, cytokine rescue, dose response, luminescence, retest (AID 449756).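 Note: cell death triggered by IL-1 beta plus TNF-alpha plus IFN-gamma mixture; protective hits raise ATP signal compared with cytokine alone wells.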 Particulars: Rattus norvegicus. The class given is functional, cell-based.
Assay [13] can be described thus: microbe, parasite or virus in culture. The class given is functional. Particulars: Mycobacterium tuberculosis.
The target in a further assay is Paired box protein Pax-8 (Homo sapiens, UniProt Q06710). The assay can be described thus: inhibitors of PAX8-driven TPO luciferase reporter, dose response, RMG-I cells, cherry-pick (AID 687027).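 Note: luciferase reporter driven by Pax8 target thyroperoxidase promoter measured by SteadyGlo luminescence.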 The class given is functional, cell-based.
Paired box protein Pax-8, sequence (Q06710 whole entry): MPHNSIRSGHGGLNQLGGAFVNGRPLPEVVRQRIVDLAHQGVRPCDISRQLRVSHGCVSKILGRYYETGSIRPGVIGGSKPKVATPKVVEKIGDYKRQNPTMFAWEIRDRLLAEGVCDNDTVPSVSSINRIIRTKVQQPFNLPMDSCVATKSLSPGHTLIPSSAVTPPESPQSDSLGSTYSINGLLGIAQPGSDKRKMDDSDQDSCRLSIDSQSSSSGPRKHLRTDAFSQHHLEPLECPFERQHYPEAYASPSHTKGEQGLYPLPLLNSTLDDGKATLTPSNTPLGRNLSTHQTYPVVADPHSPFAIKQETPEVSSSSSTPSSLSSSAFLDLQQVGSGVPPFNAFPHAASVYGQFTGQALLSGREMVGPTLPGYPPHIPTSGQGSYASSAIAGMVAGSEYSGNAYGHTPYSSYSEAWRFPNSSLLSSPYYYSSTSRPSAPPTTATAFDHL
Assay [14] is described as follows: inhibitors of firefly luciferase expression or activity, dose response, H4 neuroglioma cells, luminescence (AID 1990). The class given is functional, cell-based.
Assay [15] is described as follows: inhibitors of SNCA 5'UTR-driven reporter translation, confirmation, H4 neuroglioma cells, luminescence (AID 1988). The assay is classed as functional, cell-based.
Assay [16] can be described thus: Luminescence Cell-Based Dose Response HTS to Identify Inhibitors of 5'UTR Stem-Loop Driven Prion Protein mRNA Translation in H4 Neuroglioblastoma Cells. [Related pubchem assays: 1827 (Project Summary), 1813 (Primary HTS)]. The class given is functional.

Induced myeloid leukemia cell differentiation protein Mcl-1, sequence (Q07820 whole entry): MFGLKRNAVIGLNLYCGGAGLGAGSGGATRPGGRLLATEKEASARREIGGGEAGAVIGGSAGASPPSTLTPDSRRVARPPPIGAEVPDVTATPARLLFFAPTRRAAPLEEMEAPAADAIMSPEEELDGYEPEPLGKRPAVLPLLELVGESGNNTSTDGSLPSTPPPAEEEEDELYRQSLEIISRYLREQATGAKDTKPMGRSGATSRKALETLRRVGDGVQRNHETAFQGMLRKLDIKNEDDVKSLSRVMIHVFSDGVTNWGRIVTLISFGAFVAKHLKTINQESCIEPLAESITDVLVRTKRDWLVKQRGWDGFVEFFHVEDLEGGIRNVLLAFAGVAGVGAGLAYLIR

With `CCC(C)N1C(=O)/C(=C/c2ccc3c(c2)CCN3CCCCl)C(=O)NC1=S` (stereo unspecified), the 50% inhibitory concentration (IC50) in [1] is 5.31 µM (active).

With `Cc1ccc(O)c(NC(=O)CCC2CCCCC2)c1`, in assay [2], the IC50 was > 80 µM (inactive).

With `CN1CCN(c2cc(N3CCCCCC3)c(F)cc2[N+](=O)[O-])CC1`, on Nonstructural protein 1, the concentration for half-maximal inhibition (IC50) was > 100 µM (active).

Regarding `CCc1ccc(OCC(=O)NNC(=O)c2ccc(NC(=O)C3CC3)cc2)cc1`, the concentration for half-maximal inhibition (IC50) in [3] is 10.5 µM (active).

On to `O=C(CCN1C(=O)/C(=C/c2ccc(Cl)cc2)SC1=S)Nc1ccc(C(=O)O)cc1`, for which the half-inhibitory concentration (IC50) in [3] is 2.64 µM (active).

Take `CN1CCN(C(=O)c2cccc(-c3cc(O)c4ncccc4c3)c2)CC1`: the IC50 on Nonstructural protein 1 was 11.4 µM (active).

As for `O=C(CCCc1ccccc1)c1ccccc1`, the 50% inhibitory concentration (IC50) in assay [4] is 54.9 µM (active); on Caspase-3, 13.5 µM (active); in assay [5], 7.31 µM (active); in assay [6] it was 20.4 µM (active).

With `O=C(CCN1C(=O)S/C(=C\c2ccc(Cl)cc2)C1=O)Nc1ccc(C(=O)O)cc1`, in assay [3], the IC50 was 6.17 µM (active).

For `CC(C)(C)[S@@+]([O-])N1Cc2cc(C(=O)NCCc3ccncc3)nc(-c3cccc(-c4ccccc4)c3)c2[C@H]1CCO`, the concentration at half-maximal activity (AC50) in [7] was 0.366 µM (active); in assay [8], 0.537 µM (active); in assay [9] it was 1.08 µM (active); in assay [10], 0.414 µM (active).

As to `C[C@]12CC[C@@H]3c4cc(O)c(O)cc4CC[C@H]3[C@@H]1CC[C@@H]2O`, the IC50 in assay [2] was > 80 µM (inactive); at Large T antigen, > 100 µM (active); in [12], 72.5 µM (inactive). Also, in [11], the EC50 was 4.07 µM (active).

Consider `CCCCCCCCn1c2c(c(=N)c3c1CCC3)CCCC2`, for which the AC50 in the assay on INS1 was < 0.195 µM (active); on Paired box protein Pax-8 it was 2.36 µM (active). Also, in assay [13], the CC50 was 32.7 µM (active). The IC50 in [2] is 73.8 µM (inactive). For the same compound, the figures for the EC50 in [14], in [15] and in assay [16] were 4.15 µM (active), 7.18 µM (active) and 32.4 µM (active), respectively.
